Key:
[1] = Stability in mouse small intestine homogenate and its final extract; assay type: in vitro ADME; conditions: nominal 50 ng/mL
Protocol: (§1) After weighing the complete organ, a volume of 3 mL of this solution was added to the liver and small intestine, 2 mL to the kidneys, and 1 mL to the brain and spleen. The tissue/BSA ratio (w/v) of the homogenates were approximately 0.4:1 for the brain and liver, 0.1:1 for the spleen, 0.2:1 for the kidneys, and 0.25:1 for the small intestine. All samples were shaken in the Fast Prep at 6.0 m/s during 60 s. The stability of each analyte was investigated in all the previously mentioned matrices. For plasma (both human and mouse), the stability was determined in triplicate at two concentration levels, QC L and QC H, whereas for mouse tissue homogenates only at QC M (except the brain in one stability condition). For all matrices, the following stability conditions were assessed: short term at room temperature (RT), long term at − 20 °C, and after 3 freeze-thaw (F/T) cycles at − 20 °C/RT. Furthermore, for tissue homogenates, the short-term stability in ice-water, long-term stability at − 70 °C, and F/T stability at − 70 °C/ice-water were also evaluated. Additionally, the stability in the final extract was tested. For this, the QC L and QC H final extracts from the plasma, brain, and spleen and the QC M final extract from the liver, kidney and small intestine were stored at 4–8 °C up to 3 days. Lastly, the stability of the stock solutions at − 20 °C was investigated.

[2] = Stability in mouse plasma and its final extract (LC-MS/MS); assay type: in vitro ADME
Protocol: 50 μL of the sample (either from a preclinical study, calibration standard, or QC) was mixed with 25 μL of IS-working solution, followed by 150 μL of ACN for protein precipitation. Samples were vortex mixed and centrifuged at 23,100g for 10 min at 20 °C. An aliquot of 80 μL of supernatant was diluted with 120 μL of 10 mM ammonium bicarbonate in water:MeOH (1:1 v/v). The final extract was transferred to a glass vial with insert, and 10 μL was injected to the LC-MS/MS system for analysis.
The stability of each analyte was investigated in all the previously mentioned matrices. For plasma (both human and mouse), the stability was determined in triplicate at two concentration levels, QC L and QC H, whereas for mouse tissue homogenates only at QC M (except the brain in one stability condition). For all matrices, the following stability conditions were assessed: short term at room temperature (RT), long term at − 20 °C, and after 3 freeze-thaw (F/T) cycles at − 20 °C/RT. Furthermore, for tissue homogenates, the short-term stability in ice-water, long-term stability at − 70 °C, and F/T stability at − 70 °C/ice-water were also evaluated. Additionally, the stability in the final extract was tested. […] Lastly, the stability of the stock solutions at − 20 °C was investigated.

[3] = Stability in mouse spleen homogenate and its final extract; assay type: in vitro ADME
Protocol: as §1

[4] = Plasma pharmacokinetics in mice after oral administration; assay type: in vivo, mouse (FVB)
Protocol: This method was developed to support pharmacokinetic and tissue distribution studies of the CDK4/6 inhibitors in mice (FVB background). These studies were done separately for each drug. Animal housing and studies were conducted according to institutional guidelines complying with Dutch and European Union legislation (approval number from The Dutch Central Animal Testing Committee: AVD301002016595). […] Approximately 50 μL of blood was collected from the tip of the tail at several time points, except at the last one, when 500–1000 μL of blood was collected by cardiac puncture under isoflurane anesthesia. […] Mice were sacrificed by cervical dislocation and the organs were collected and weighed. Plasma was obtained using sodium heparin as anticoagulant after centrifugation at 9000g, 4 °C, for 6 min. When necessary, 10 μL of mouse plasma was diluted with 40 μL of human plasma. The tissue homogenates were prepared according to the procedure described in the “Tissue homogenate preparation” section. Plasma and tissue homogenate samples were stored at − 20 and − 70 °C, respectively, until the LC-MS/MS analysis was performed.

CDK6 = conditions: cited from earlier work
CDK4 = conditions: cited from earlier work
[5] = Stability of stock solutions at − 20 °C; assay type: physicochemical; conditions: 1 mg/mL stock solution, storage at − 20 °C
Protocol: The stability of each analyte was investigated in all the previously mentioned matrices. For plasma (both human and mouse), the stability was determined in triplicate at two concentration levels, QC L and QC H, whereas for mouse tissue homogenates only at QC M (except the brain in one stability condition). For all matrices, the following stability conditions were assessed: short term at room temperature (RT), long term at − 20 °C, and after 3 freeze-thaw (F/T) cycles at − 20 °C/RT. Furthermore, for tissue homogenates, the short-term stability in ice-water, long-term stability at − 70 °C, and F/T stability at − 70 °C/ice-water were also evaluated. Additionally, the stability in the final extract was tested. For this, the QC L and QC H final extracts from the plasma, brain, and spleen and the QC M final extract from the liver, kidney and small intestine were stored at 4–8 °C up to 3 days. Lastly, the stability of the stock solutions at − 20 °C was investigated.

[6] = Stability in mouse liver homogenate and its final extract; assay type: in vitro ADME; conditions: nominal 50 ng/mL
Protocol: as §1

[7] = final extract (listed under small intestine homogenate), 4–8 °C, 2 d
[8] = small intestine homogenate, 3 F/T (RT, − 20 °C)
[9] = small intestine homogenate, 3 F/T (− 70 °C, ice/water bath)
[10] = small intestine homogenate, LT − 20 °C, 1 m
[11] = small intestine homogenate, LT − 70 °C, 1 m
[12] = small intestine homogenate, RT, 3 h
[13] = small intestine homogenate, RT, 1 d
[14] = small intestine homogenate, ice/water bath, 3 h
[15] = mouse plasma, − 20 °C, 3 m, nominal 150 ng/mL
[16] = final extract (listed under spleen homogenate), 4–8 °C, 3 d, nominal 5 ng/mL
[17] = spleen homogenate, 3 F/T (RT, − 20 °C), nominal 50 ng/mL
[18] = spleen homogenate, 3 F/T (− 70 °C, ice/water bath), nominal 50 ng/mL
[19] = spleen homogenate, LT − 20 °C, 1 m, nominal 50 ng/mL
[20] = spleen homogenate, LT − 70 °C, 1 m, nominal 50 ng/mL
[21] = spleen homogenate, RT, 3 h, nominal 50 ng/mL
[22] = spleen homogenate, RT, 1 d, nominal 50 ng/mL
[23] = spleen homogenate, ice/water bath, 3 h, nominal 50 ng/mL
[24] = final extract (listed under liver homogenate), 4–8 °C, 2 d
[25] = liver homogenate, 3 F/T (RT, − 20 °C)
[26] = liver homogenate, 3 F/T (− 70 °C, ice/water bath)
[27] = liver homogenate, LT − 20 °C, 1 m
[28] = liver homogenate, LT − 70 °C, 1 m
[29] = liver homogenate, ice/water bath, 3 h
[30] = final extract (listed under mouse plasma), 4–8 °C, 4 d, nominal 5 ng/mL
[31] = final extract (listed under mouse plasma), 4–8 °C, 4 d, nominal 150 ng/mL
[32] = mouse plasma, 3 F/T (− 20 °C/RT), nominal 5 ng/mL
[33] = mouse plasma, 3 F/T (− 20 °C/RT), nominal 150 ng/mL
[34] = mouse plasma, RT, 3 d, nominal 150 ng/mL
[35] = mouse plasma, − 20 °C, 3 m, nominal 5 ng/mL
[36] = final extract (listed under spleen homogenate), 4–8 °C, 3 d, nominal 150 ng/mL

## CN(C)C(=O)c1cc2cnc(Nc3ccc(N4CCNCC4)cn3)nc2n1C1CCCC1 [Ribociclib]
[1]; [7]
  Mean concentration: […]
[1]; [8]
  Mean concentration: 45.6 ng/mL
[1]; [9]
  Accuracy (% Bias): […]
  Mean concentration: […]
[1]; [10]
  Mean concentration: 38.9 ng/mL
[1]; [11]
  Mean concentration: […]
[1]; [12]
  Accuracy (% Bias): 1.3%
  Mean concentration: 50.6 ng/mL
[1]; [13]
  Mean concentration: […]
[1]; [14]
  Mean concentration: 48.4 ng/mL
[2]; [15]
  Accuracy (% Bias): 4.7%
[3]; [16]
  Accuracy (% Bias): 3.2%
[3]; [17]
  Mean concentration: 42.9 ng/mL
[3]; [18]
  Mean concentration: […]
[3]; [19]
  Mean concentration: 40.5 ng/mL
[3]; [20]
  Mean concentration: 45.0 ng/mL
[3]; [21]
  Mean concentration: […]
[3]; [22]
  Mean concentration: 21.8 ng/mL
[3]; [23]
  Mean concentration: 46.2 ng/mL
[4]; female, FVB, po, mouse plasma, 20 mg/kg orally administered, t = 8 h, read-out: plasma concentration of representative sample
  concentration at 8 h: 625 ng/mL
[4]; mouse, female FVB mice, 20 mg/kg oral, plasma, n = 6
  Cmax: 1040 ± 352 ng/mL
[4]; mouse, female FVB mice, 20 mg/kg oral, plasma, n = 6, read-out: AUC0–24h
  AUC(0-t): […]
[4]; mouse, female FVB mice, 20 mg/kg oral, plasma, n = 6, read-out: Tmax range
  Tmax: […]
CDK6
  IC50: 39 nM
CDK4
  IC50: […]
[5]
  stability of stock solutions (time stable): […]
[6]; [24]
  Mean concentration: […]
[6]; [25]
  Mean concentration: 47.7 ng/mL
[6]; [26]
  Accuracy (% Bias): […]
  Mean concentration: […]
[6]; [27]
  Mean concentration: 32.4 ng/mL
[6]; [28]
  Mean concentration: […]
[6]; liver homogenate, RT, 1 d
  Mean concentration: […]
[6]; [29]
  Mean concentration: 45.4 ng/mL

## CCN1CCN(Cc2ccc(Nc3ncc(F)c(-c4cc(F)c5nc(C)n(C(C)C)c5c4)n3)nc2)CC1 [Abemaciclib]
[1]; [7]
  Accuracy (% Bias): 4.7%
[1]; [8]
  Mean concentration: 49.0 ng/mL
[1]; [9]
  Accuracy (% Bias): 1.5%
[1]; [10]
  Mean concentration: 48.2 ng/mL
[1]; [11]
  Mean concentration: 48.3 ng/mL
[1]; [12]
  Mean concentration: 56.4 ng/mL
[1]; [13]
  Mean concentration: 46.4 ng/mL
[1]; [14]
  Accuracy (% Bias): 3.1%
  Mean concentration: 51.6 ng/mL
[2]; [30]
  Accuracy (% Bias): 8.1%
[2]; [31]
  Accuracy (% Bias): 5.1%
[2]; [32]
  Accuracy (% Bias): […]
  Mean concentration: […]
[2]; [33]
  Accuracy (% Bias): 7.6%
[2]; mouse plasma, RT, 3 d, nominal 5 ng/mL
  Mean concentration: […]
[2]; [34]
  Accuracy (% Bias): 6.2%
[2]; [35]
  Accuracy (% Bias): 1.0%
[2]; [15]
  Accuracy (% Bias): 21.8%
[3]; [16]
  Accuracy (% Bias): 10.7%
[3]; [36]
  Accuracy (% Bias): 4.2%
[3]; [17]
  Mean concentration: 48.7 ng/mL
[3]; [18]
  Mean concentration: 56.1 ng/mL
[3]; [19]
  Mean concentration: 48.6 ng/mL
[3]; [20]
  Accuracy (% Bias): 3.5%
  Mean concentration: 51.8 ng/mL
[3]; [21]
  Accuracy (% Bias): 3.4%
  Mean concentration: 51.7 ng/mL
[3]; [22]
  Mean concentration: 46.5 ng/mL
[3]; [23]
  Accuracy (% Bias): 4.9%
[4]; FVB, po, mouse plasma, 10 mg/kg orally administered, t = 24 h, read-out: plasma concentration of representative sample
  concentration at 24 h: 74.3 ng/mL
CDK6
  IC50: […]
CDK4
  IC50: […]
[5]
  stability of stock solutions (time stable): […]
[6]; [24]
  Mean concentration: […]
[6]; [25]
  Accuracy (% Bias): […]
  Mean concentration: […]
[6]; [26]
  Accuracy (% Bias): 0.1%
[6]; [27]
  Accuracy (% Bias): 1.4%
[6]; [28]
  Accuracy (% Bias): […]
  Mean concentration: […]
[6]; liver homogenate, RT, 1 d
  Mean concentration: […]
[6]; [29]
  Accuracy (% Bias): 3.8%
  Mean concentration: 51.9 ng/mL

— paper PMC6647725 (Analytical and Bioanalytical Chemistry, 2019)
